Reference: patent US11667656B2, “Crystalline forms of Tenofovir alafenamide” (Apotex Inc., priority 2021, dated 2023)
Where a name gives a salt, the structure may show the parent alone.

How the values were obtained:
[1] = Wood apparatus, bath 37° C., 900 mL distilled water, 50 rpm, compressed 200-400 mg samples
Description: Intrinsic dissolution rate (IDR) measurements were performed using a Wood apparatus (Pharma Test PT-DT8 instrument) having a bath temperature of 37° C. Samples were prepared by compressing 200-400 mg samples at 1.5 metric tons for 1 minute. A dissolution medium consisting of 900 mL distilled water, and rotation speed of 50 rpm, was used for each experiment.

[2] = reported; cited from earlier work
[3] = CDER review, NDA 207561; cited from earlier work
[4] = rats; in comparison to tenofovir alafenamide hemifumarate; CN 105237571 B; cited from earlier work

Tenofovir alafenamide succinate [Tenofovir alafenamide succinate (1:1)]
Intrinsic Dissolution Rate [1]: 0.67 mg min^−1 cm^−2

CC(C)OC(=O)[C@H](C)N[P@](=O)(CO[C@H](C)Cn1cnc2c(N)ncnc21)Oc1ccccc1 [tenofovir alafenamide, L-alanine, N—[(S)-[[(1 R)-2-(6-amino-9H-purin-9-yl)-1-methylethoxy]methyl]phenoxyphosphinyl]-, 1-methylethyl ester]
bioavailability [2]: low

CC(C)OC(=O)[C@H](C)N[P@](=O)(CO[C@H](C)Cn1cnc2c(N)ncnc21)Oc1ccccc1 [Tenofovir alafenamide fumarate (1:1), Tenofovir alafenamide fumarate]
Intrinsic Dissolution Rate [1]: 0.87 mg min^−1 cm^−2

tenofovir alafenamide hemifumarate
Biopharmaceutics Classification System (BCS) class [3]: Class III
solubility [3]: high

tenofovir alafenamide hemisuccinate
absorption (AUC) [4]: higher
maximum plasma concentration (Cmax) [4]: higher
